Results: ChEMBL document CHEMBL1201862, “PubChem BioAssay data set” (2004)
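Values below derive from 48-hour exposures of cells grown in 96-well plates, with endpoints linearly interpolated between the two concentrations bracketing the appropriate inhibition level. GI50 = concentration required for 50% inhibition of growth.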 The source made the active and inactive calls. No stated cut-off is given here; in the data, active = GI50 up to about 1.1 µM and inactive = higher. Non-standard residues stand in square brackets, D forms with d. Residues, ends and D or L forms follow the SMILES beside them. Ava = NCCCCC(=O)O; Mpa = O=C(O)CCS

What was measured:
Assay in all cases: inhibition of tumour cell growth, NCI panel, 48 h
[1] = tested on: HOP-92
[2] = tested on: RPMI-8226
[3] = tested on: SNB-19
[4] = tested on: EKVX
[5] = tested on: SK-OV-3
[6] = tested on: K562
[7] = tested on: SF-295
[8] = tested on: HL-60
[9] = tested on: UACC-62
[10] = tested on: HCC 2998
[11] = tested on: NCI/ADR-RES
[12] = tested on: OVCAR-4
[13] = tested on: OVCAR-5
[14] = tested on: 786-0
[15] = tested on: SNB-75
[16] = tested on: ACHN
[17] = tested on: SR
[18] = tested on: SK-MEL-5
[19] = tested on: SF-539
[20] = tested on: RXF 393

Measured: GI50

COc1cc(/C=C/C(=O)OC[C@]23O[C@H]2[C@@H](OC2OC(C)C(O)C(O)C2O)C2C=CO[C@@H](OC4OC(CO)C(O)C(O)C4O)C23)ccc1O (stereo partly drawn)
inactive: [1] > 100 µM | [2] > 100 µM | [3] > 100 µM | [4] > 100 µM | [5] > 100 µM | [6] > 100 µM | [7] > 100 µM | [8] > 100 µM | [9] > 100 µM | [10] > 100 µM | [11] > 100 µM | [12] > 100 µM | [13] > 100 µM | [14] > 100 µM | [15] > 100 µM | [16] > 100 µM | [17] > 100 µM | [18] > 100 µM

CN1C(=O)c2cccc3cc([N+](=O)[O-])cc(c23)C1=O
inactive: [1] > 10 µM | [2] > 10 µM | [3] > 10 µM | [5] > 10 µM | [6] > 10 µM | [7] > 10 µM | [8] > 10 µM | [9] > 10 µM | [10] > 10 µM | [11] > 10 µM | [12] > 10 µM | [13] > 10 µM | [14] > 10 µM | [15] > 10 µM | [16] > 10 µM | [17] > 10 µM | [19] > 10 µM | [18] > 10 µM

CC(=O)Nn1c(Cc2ccc(Cl)cc2)nn(C)c1=O
inactive: [1] > 100 µM | [2] > 100 µM | [3] > 100 µM | [4] > 100 µM | [5] > 100 µM | [6] > 100 µM | [7] > 100 µM | [8] > 100 µM | [9] > 100 µM | [10] > 100 µM | [11] > 100 µM | [12] > 100 µM | [13] > 100 µM | [14] > 100 µM | [15] > 100 µM | [16] > 100 µM | [17] > 100 µM | [19] > 100 µM | [18] > 100 µM

CCCNC(=S)N/C=C1/C(=O)Oc2ccccc2C1=O
inactive: [1] 53 µM | [3] > 100 µM | [4] > 100 µM | [5] 42.2 µM | [20] 60.4 µM | [7] > 100 µM | [8] 13.6 µM | [9] 92 µM | [10] > 100 µM | [11] > 100 µM | [12] > 100 µM | [13] > 100 µM | [14] > 100 µM | [15] 33.2 µM | [16] 94.8 µM | [17] > 100 µM | [19] > 100 µM | [18] > 100 µM

C[C@@H]1[C@@H](c2ccccc2)O[B-](c2ccccc2)(c2ccccc2)[N+]1(C)C
inactive: [1] 25.4 µM | [2] 58.9 µM | [3] > 100 µM | [4] > 100 µM | [5] > 100 µM | [6] 33 µM | [20] 34.7 µM | [7] > 100 µM | [8] 66.1 µM | [9] > 100 µM | [11] > 100 µM | [12] 56.4 µM | [13] > 100 µM | [14] 66.7 µM | [16] 50.1 µM | [17] 53 µM | [19] 55.7 µM | [18] 27.5 µM

CC(NC(=O)CCS)C(=O)NC(C)C(=O)NC(Cc1c[nH]c2ccccc12)C(=O)NC(Cc1c[nH]cn1)C(=O)NC(CO)C(=O)NC(Cc1c[nH]c2ccccc12)C(=O)NCCCCC(=O)NC(C)C(=O)NC(CCC(N)=O)C(=O)NC(CCCCN)C(=O)NC(C)C(=O)NC(CCCNC(=N)N)C(=O)NC(CCCCN)C(N)=O (stereo not drawn) ([Mpa]AAWHSW[Ava]AQKARK-NH2; configuration not given here)
inactive: [1] > 100 µM | [2] > 100 µM | [3] > 100 µM | [4] > 100 µM | [5] > 100 µM | [6] 26.9 µM | [20] > 100 µM | [7] > 100 µM | [8] 24.7 µM | [9] 22.5 µM | [11] > 100 µM | [12] > 100 µM | [13] > 100 µM | [14] 31.6 µM | [15] > 100 µM | [16] > 100 µM | [17] 87.5 µM | [19] > 100 µM | [18] 35.6 µM

CC(C)=CCC/C(C)=C/COc1c2ccoc2cc2oc(=O)ccc12 [BERGAMOTTIN]
inactive: [1] 50.2 µM | [2] 17.1 µM | [3] 32.3 µM | [4] 22.2 µM | [5] 27.5 µM | [6] 22.4 µM | [7] 25.4 µM | [8] 16.4 µM | [9] 10.7 µM | [10] 28.2 µM | [11] 35 µM | [12] 41.4 µM | [13] 23.8 µM | [14] 32.4 µM | [16] 22.8 µM | [17] 15.2 µM | [19] 37.2 µM | [18] 14.9 µM
